Results on 26 molecules are retold here after ChEMBL document CHEMBL3244041, “Synthesis and structure-activity relationships of 5H,11 H-[I]benzopyrano[4,3-g]benzopyran-9-carboxylic acids” (1977).

Experiment [1] has as its system Rattus norvegicus. In words: Antiallergic activity in adrenalectomized Sprague-Dawley rat assessed as inhibition of ovalbumin-induced passive cutaneous anaphylaxis reaction at 1 mg/kg, iv after 12 days by Evans blue staining. In kind it is functional. The settings on record: 288 h.
The subject of experiment [2] is Rattus norvegicus. Kind of experiment: Antiallergic activity in iv dosed adrenalectomized Sprague-Dawley rat assessed as inhibition of ovalbumin-induced passive cutaneous anaphylaxis reaction after 12 days by Evans blue staining. In kind it is functional. Conditions: 288 h.

Regarding `CC1(C)Oc2c(cc3c(=O)cc(C(=O)O)oc3c2Cl)-c2ccccc21`, in the experiment on Rattus norvegicus [1], the inhibition in vivo (as a rule, the change of the read-out against control, counted positive when it falls) at 1 mg/kg is 66.7%. As to `CC1(C)Oc2cc3oc(C(=O)O)cc(=O)c3cc2-c2cc(Cl)ccc21`, the inhibition in vivo at 1 mg/kg in the experiment with Rattus norvegicus [1] turned out to be 25%. With `CC1(C)Oc2cc3oc(C(=O)O)cc(=O)c3cc2-c2ccc(S(=O)(=O)O)cc21`, in the experiment on Rattus norvegicus [1], the inhibition in vivo at 1 mg/kg worked out at 0%. `COc1cc2c(cc1OC)C(C)(C)Oc1cc3oc(C(=O)O)cc(=O)c3cc1-2`: in the experiment with Rattus norvegicus [1], the inhibition in vivo at 1 mg/kg was found to be 67.7%.

As for `COc1c2c(cc3c(=O)cc(C(=O)O)oc13)-c1ccccc1CO2`, the inhibition in vivo at 1 mg/kg in the experiment with Rattus norvegicus [1] stood at 50%.

`CC1(C)Oc2c(cc3c(=O)cc(C(=O)O)oc3c2[N+](=O)[O-])-c2ccccc21`: the inhibition in vivo at 1 mg/kg with Rattus norvegicus [1] stood at 20%. Consider `O=C([O-])c1cc(=O)c2cc3c(cc2o1)OCc1ccccc1-3.[Na+]`, for which, in the experiment with Rattus norvegicus [1], the inhibition in vivo at 1 mg/kg was determined as 64.3%. In addition, the 50% effective dose (ED50) – broadly, the midpoint of the dose-response relation – in the experiment with Rattus norvegicus [2] came out at 0.3 mg/kg. In the case of `CC1(C)Oc2c(cc3c(=O)cc(C(=O)O)oc3c2N)-c2ccccc21`, the inhibition in vivo at 1 mg/kg in the experiment with Rattus norvegicus [1] was 64.3%. With `CCCOc1ccc2c(c1)C(C)(C)Oc1cc3oc(C(=O)O)cc(=O)c3cc1-2`, in the experiment with Rattus norvegicus [1], the inhibition in vivo at 1 mg/kg was found to be 40%. As for `COc1ccc2c(c1)C(C)(C)Oc1cc3oc(C(=O)O)cc(=O)c3cc1-2`, the inhibition in vivo at 1 mg/kg with Rattus norvegicus [1] was 66.7%. For the molecule `CC1(C)Oc2cc3oc(C(=O)O)cc(=O)c3cc2-c2ccc(Cl)cc21`, the inhibition in vivo at 1 mg/kg in the experiment with Rattus norvegicus [1] is 60%. On the same count and under the same terms, then `CCCCC1(CCCC)Oc2cc3oc(C(=O)O)cc(=O)c3cc2-c2ccccc21`, with 25%.

As for `CC1(C)Oc2cc3oc(C(=O)O)cc(=O)c3cc2-c2ccc(F)cc21.NCCO`, the inhibition in vivo at 1 mg/kg in the experiment with Rattus norvegicus [1] worked out at 60%. In the experiment on Rattus norvegicus [2], the ED50 was found to be 0.87 mg/kg.

As for `CC1(C)Oc2cc3oc(C(=O)O)cc(=O)c3cc2-c2ccc([N+](=O)[O-])cc21`, the inhibition in vivo at 1 mg/kg with Rattus norvegicus [1] turned out to be 50%. On to `Cc1c2c(cc3oc(C(=O)O)cc(=O)c13)OC(C)(C)c1ccccc1-2`, for which the inhibition in vivo at 1 mg/kg with Rattus norvegicus [1] came out at 0%.

`NCCO.O=C(O)c1cc(=O)c2cc3c(oc(=O)c4ccccc43)c(O)c2o1`: the inhibition in vivo at 1 mg/kg in the experiment with Rattus norvegicus [1] worked out at 55.6%. Further, in the experiment on Rattus norvegicus [2], the 50% effective dose (ED50) was 2 mg/kg.

As to `CC1(C)Oc2cc3oc(C(=O)O)cc(=O)c3c(O)c2-c2ccccc21`, in the experiment with Rattus norvegicus [1], the inhibition in vivo at 1 mg/kg was determined as 0%. Consider `CC(=O)Oc1ccc2c(c1)C(C)(C)Oc1cc3oc(C(=O)O)cc(=O)c3cc1-2`, for which the inhibition in vivo at 1 mg/kg in the experiment with Rattus norvegicus [1] came out at 73.4%. As to `CC1(C)Oc2cc3oc(C(=O)O)cc(=O)c3cc2-c2ccc(OCCO)cc21.NCCO`, the inhibition in vivo at 1 mg/kg in the experiment on Rattus norvegicus [1] came out at 82.8%. Besides, the 50% effective dose (ED50) in the experiment on Rattus norvegicus [2] worked out at 0.11 mg/kg. On to `COc1cccc2c1COc1cc3oc(C(=O)O)cc(=O)c3cc1-2`, for which the inhibition in vivo at 1 mg/kg with Rattus norvegicus [1] came out at 0%. For `COc1cc2c(cc1Br)-c1cc3c(=O)cc(C(=O)O)oc3cc1OC2(C)C`, the inhibition in vivo at 1 mg/kg in the experiment on Rattus norvegicus [1] stood at 0%. With `CC1(C)Oc2cc3oc(C(=O)O)cc(=O)c3cc2-c2ccc(N)cc21`, the inhibition in vivo at 1 mg/kg in the experiment on Rattus norvegicus [1] is 77.8%.

Regarding `O=C(O)c1cc(=O)c2cc3c(c(O)c2o1)OCc1ccccc1-3`, the inhibition in vivo at 1 mg/kg in the experiment on Rattus norvegicus [1] was 33.4%. Turning to `CC1(C)Oc2cc3oc(C(=O)[O-])cc(=O)c3cc2-c2ccc(O)cc21.[Na+]`, in the experiment with Rattus norvegicus [1], the inhibition in vivo at 1 mg/kg turned out to be 77.8%. Moreover, the ED50 in the experiment on Rattus norvegicus [2] was found to be 0.3 mg/kg. In the case of `CC1(C)Oc2cc3oc(C(=O)O)cc(=O)c3cc2-c2ccccc21.NCCO`, the inhibition in vivo at 1 mg/kg with Rattus norvegicus [1] came out at 70.3%. In the experiment on Rattus norvegicus [2], the 50% effective dose (ED50) amounted to 0.5 mg/kg. Consider `O=C([O-])c1cc(=O)c2c(OCC(O)COc3cccc4oc(C(=O)[O-])cc(=O)c34)cccc2o1.[Na+].[Na+]` [CROMOLYN SODIUM], for which the inhibition in vivo at 1 mg/kg with Rattus norvegicus [1] was found to be 26.7%. Further, the median effective dose (ED50) in the experiment on Rattus norvegicus [2] was found to be 2.88 mg/kg.
